Laboratory results published in US20250110108A1 (priority 2022, published 2025).

Conditions: in vivo

| Substance | concentration range in urine [ng/mL] | median concentration in urine [µg/L] | share of ΣAs in urine |
| --- | --- | --- | --- |
| Arsenic acid [As^V] | 0 to 12.1 | 1.12 |  |
| Arsenious acid [As^III] | 2.13 to 101 | 13.8 | 3.8-36.9% |
